The source of these data is PubChem BioAssay AID328 (DTP/NCI, 2004).

For the assay, the system named is BDF1 mice, P388 leukemia ip, median survival T/C. As to the kind of experiment: NCI In Vivo Anticancer Drug Screen. Data for tumor model P388 Leukemia (intraperitoneal) in B6D2F1 (BDF1) mice. As to conditions: endpoint: median survival time, higher = longer survival. In outline: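 Each value expresses how treatment altered survival: treated-mouse outcome over vehicle-mouse outcome, both groups bearing the transplanted tumour.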

[1] abbreviates: dose: 12.5 mg/kg/injection, schedule: Q01DX009 (ip), vehicle: saline.
The mark [2] stands for this setting: dose: 25.0 mg/kg/injection, schedule: Q01DX009 (ip), vehicle: saline.
Setting [3] is: dose: 25.0 mg/kg/injection, schedule: Q04DX003 (ip), vehicle: saline.
Setting [4] is: dose: 100.0 mg/kg/injection, schedule: Q01DX009 (ip), vehicle: Klucel (hydroxypropylcellulose) (HPC).
[5] abbreviates: dose: 200.0 mg/kg/injection, schedule: Q01DX009 (ip), vehicle: Klucel (hydroxypropylcellulose) (HPC).
Setting [6] is: dose: 50.0 mg/kg/injection, schedule: Q01DX009 (ip), vehicle: Klucel (hydroxypropylcellulose) (HPC).
[7] abbreviates: dose: 3.13 mg/kg/injection, schedule: Q01DX009 (ip), vehicle: saline.
The mark [8] stands for this setting: dose: 6.25 mg/kg/injection, schedule: Q01DX009 (ip), vehicle: saline.
Setting [9] is: dose: 50.0 mg/kg/injection, schedule: Q01DX009 (ip), vehicle: saline with Tween-80.
Where [10] appears, read: dose: 100.0 mg/kg/injection, schedule: Q01DX009 (ip), vehicle: saline with Tween-80.
[11] abbreviates: dose: 200.0 mg/kg/injection, schedule: Q01DX009 (ip), vehicle: saline with Tween-80.
[12] abbreviates: dose: 100.0 mg/kg/injection, schedule: Q04DX003 (ip), vehicle: saline with Tween-80.
[13] abbreviates: dose: 200.0 mg/kg/injection, schedule: Q04DX003 (ip), vehicle: saline with Tween-80.
The mark [14] stands for this setting: dose: 400.0 mg/kg/injection, schedule: Q04DX003 (ip), vehicle: saline with Tween-80.
Where [15] appears, read: dose: 400.0 mg/kg/injection, schedule: Q01DX009 (ip), vehicle: saline with Tween-80.

Molecules are shown by their SMILES. Where “and” joins values, the source holds several entries; their conditions need not be identical. Equal values may be shown once. Inconclusive results and toxic doses are left out.

In the case of `CCCC(=O)NC1=C(N2CC2)C(=O)C(NC(=O)CCC)=C(N2CC2)C1=O`, the T/C is, setting by setting: (dose: 0.44 mg/kg/injection, schedule: Q04DX003 (ip), vehicle: saline with Tween-80) 104 % of control; (dose: 0.66 mg/kg/injection, schedule: Q04DX003 (ip), vehicle: saline with Tween-80) 109 % of control; (dose: 1.0 mg/kg/injection, schedule: Q01DX009 (ip), vehicle: saline) 213 % of control; (dose: 1.0 mg/kg/injection, schedule: Q04DX003 (ip), vehicle: saline with Tween-80) 122 % of control; (dose: 1.5 mg/kg/injection, schedule: Q04DX003 (ip), vehicle: saline with Tween-80) 100 % of control; (dose: 2.0 mg/kg/injection, schedule: Q01DX009 (ip), vehicle: saline) 200 % of control. Further, the T/C is 150 % of control (dose: 2.5 mg/kg/injection, schedule: Q04DX003 (ip), vehicle: saline with Tween-80); 285 % of control (dose: 4.0 mg/kg/injection, schedule: Q01DX009 (ip), vehicle: saline); 204 % of control (dose: 5.0 mg/kg/injection, schedule: Q04DX003 (ip), vehicle: saline with Tween-80); 250 % of control (dose: 10.0 mg/kg/injection, schedule: Q04DX003 (ip), vehicle: saline with Tween-80).
In the case of `O=C(CCN1CCCCC1)c1ccccc1`, the T/C is 89 % of control under setting [1], 95 % of control under setting [2] and 95 % of control under setting [3].
`COCC(O)CC#N` (stereo not drawn): the T/C reads like this: (dose: 100.0 mg/kg/injection, schedule: Q01DX009 (ip), vehicle: saline) 100 % of control; (dose: 100.0 mg/kg/injection, schedule: Q04DX003 (ip), vehicle: saline) 95 % of control; (dose: 200.0 mg/kg/injection, schedule: Q01DX009 (ip), vehicle: saline) 87 % of control; (dose: 200.0 mg/kg/injection, schedule: Q04DX003 (ip), vehicle: saline) 95 % of control; (dose: 400.0 mg/kg/injection, schedule: Q01DX009 (ip), vehicle: saline) 95 % of control; (dose: 400.0 mg/kg/injection, schedule: Q04DX003 (ip), vehicle: saline) 100 % of control.
Regarding `S=C1SC2(CCCCCC2)NC2=C1CCCCC2`, the T/C under setting [4] is 106 % of control; the T/C under setting [5] is 103 % of control; the T/C (dose: 400.0 mg/kg/injection, schedule: Q01DX009 (ip), vehicle: Klucel (hydroxypropylcellulose) (HPC)) was 105 % of control.
For the compound `O=S1(=O)CC(Cl)(Br)C1`, the T/C under setting [6] is 105 % of control, the T/C under setting [4] was 114 % of control and the T/C under setting [5] is 123 % of control.
In the case of `CC(=O)O.CC(=O)O.CC(=O)O.CC(=O)O.[Rh].[Rh]`, the T/C is, setting by setting: (dose: 5.56 mg/kg/injection, schedule: Q01DX009 (ip), vehicle: saline) 100 % of control and 122 % of control; (dose: 8.33 mg/kg/injection, schedule: Q01DX009 (ip), vehicle: saline) 100 % of control; under setting [1], 118 % of control; (dose: 18.7 mg/kg/injection, schedule: Q01DX009 (ip), vehicle: saline) 90 % of control and 111 % of control.
Take `COc1ccc(C(c2ccc(OC)cc2)C(Cl)(Cl)Cl)cc1`: the T/C by setting is: (dose: 100.0 mg/kg/injection, schedule: Q01DX001 (ip), vehicle: Klucel (hydroxypropylcellulose) (HPC)) 104 % of control; (dose: 200.0 mg/kg/injection, schedule: Q01DX001 (ip), vehicle: Klucel (hydroxypropylcellulose) (HPC)) 100 % of control; (dose: 400.0 mg/kg/injection, schedule: Q01DX001 (ip), vehicle: Klucel (hydroxypropylcellulose) (HPC)) 100 % of control.
For the compound `O=C(Nc1ccc(NC(=O)Nc2cccc(C3=NCCCN3)c2)cc1)Nc1ccc(C2=NCCCN2)cc1`, the T/C is 154 % of control (dose: 6.6 mg/kg/injection, schedule: Q01DX009 (ip), vehicle: saline with Tween-80) and 181 % of control (dose: 10.0 mg/kg/injection, schedule: Q01DX009 (ip), vehicle: saline with Tween-80).
For the compound `c1ccc([P+](CCN2Cc3ccccc3C2)(c2ccccc2)c2ccccc2)cc1`, the T/C by setting is: under setting [7], 99 % of control; under setting [8], 114 % of control; under setting [1], 105 % of control.
As to `CSc1cccc(NC(=O)N2CCN(c3ccccc3)CC2)c1`, the T/C is, setting by setting: (dose: 12.5 mg/kg/injection, schedule: Q01DX009 (ip), vehicle: DMSO) 93 % of control; (dose: 25.0 mg/kg/injection, schedule: Q01DX009 (ip), vehicle: DMSO) 94 % of control.
`O=C(O)C(O)C(O)C(=O)O.O=C(O)C(O)C(O)C(=O)O.[O]=[V].[O]=[V]` (stereo not drawn): the T/C is, setting by setting: under setting [7], 110 % of control; under setting [8], 90 % of control and 100 % of control; (dose: 6.25 mg/kg/injection, schedule: Q04DX003 (ip), vehicle: saline) 100 % of control; under setting [1], 95 % of control and 100 % of control; (dose: 12.5 mg/kg/injection, schedule: Q04DX003 (ip), vehicle: saline) 95 % of control and 100 % of control; under setting [2], 90 % of control and 88 % of control. For the same compound, the T/C under setting [3] is 100 % of control.
For the compound `Cc1cc(C)n(CO)n1`, the T/C was 96 % of control (dose: 25.0 mg/kg/injection, schedule: Q01DX009 (ip), vehicle: Klucel (hydroxypropylcellulose) (HPC)); 107 % of control under setting [6]; 108 % of control (dose: 100.0 mg/kg/injection, schedule: Q04DX003 (ip), vehicle: Klucel (hydroxypropylcellulose) (HPC)); 100 % of control (dose: 200.0 mg/kg/injection, schedule: Q04DX003 (ip), vehicle: Klucel (hydroxypropylcellulose) (HPC)).
Regarding `CCOC(=O)Cn1nc(-c2ccc([N+](=O)[O-])o2)sc1=O`, the T/C is, setting by setting: under setting [9], 110 % of control; under setting [10], 94 % of control; under setting [11], 117 % of control.
On to `Cc1ccc(C(=O)CCCCCCCCC(=O)c2ccc(C)cc2)cc1`, for which the T/C under setting [12] is 100 % of control, the T/C under setting [13] was 90 % of control and the T/C under setting [14] was 100 % of control.
For the compound `S=c1cc(-c2ccccc2)ss1`, the T/C was 110 % of control and 101 % of control under setting [12]; 115 % of control and 101 % of control under setting [13]; 108 % of control under setting [14].
As to `Cc1ccc(NC(=O)C(C)(C)C)c(C(O)(C(F)(F)F)C(F)(F)F)c1`, the T/C by setting is: (dose: 100.0 mg/kg/injection, schedule: Q01DX001 (ip), vehicle: saline with Tween-80) 99 % of control; (dose: 200.0 mg/kg/injection, schedule: Q01DX001 (ip), vehicle: saline with Tween-80) 106 % of control; (dose: 400.0 mg/kg/injection, schedule: Q01DX001 (ip), vehicle: saline with Tween-80) 99 % of control.
As to `C1CSCSC1`, the T/C (dose: 6.25 mg/kg/injection, schedule: Q04DX003 (ip), vehicle: Klucel (hydroxypropylcellulose) (HPC)) is 100 % of control; the T/C (dose: 12.5 mg/kg/injection, schedule: Q04DX003 (ip), vehicle: Klucel (hydroxypropylcellulose) (HPC)) is 95 % of control; the T/C (dose: 25.0 mg/kg/injection, schedule: Q04DX003 (ip), vehicle: Klucel (hydroxypropylcellulose) (HPC)) is 87 % of control.
As for `CO[C@H]1CC[C@@]2(C)C(=CC[C@H]3[C@@H]4C[C@H](O)C[C@@]4(C)CC[C@@H]32)C1`, the T/C was 105 % of control (dose: 12.5 mg/kg/injection, schedule: Q01DX010 (ip), vehicle: other); 90 % of control and 120 % of control (dose: 25.0 mg/kg/injection, schedule: Q01DX010 (ip), vehicle: other).
With `NC1=NC(c2ccc(Cl)cc2)N(c2ccc(S(=O)(=O)Nc3ncccn3)cc2)C(N)=N1` (stereo not drawn), the T/C is, setting by setting: (dose: 25.0 mg/kg/injection, schedule: Q04DX003 (ip), vehicle: saline sonified) 104 % of control; (dose: 50.0 mg/kg/injection, schedule: Q04DX003 (ip), vehicle: saline sonified) 104 % of control; (dose: 100.0 mg/kg/injection, schedule: Q04DX003 (ip), vehicle: saline sonified) 95 % of control.
Regarding `Cc1ccc2[nH]c(=S)n(-c3cccc(C(F)(F)F)c3)c(=O)c2c1`, the T/C is, setting by setting: (dose: 25.0 mg/kg/injection, schedule: Q01DX009 (ip), vehicle: saline with Tween-80) 102 % of control; under setting [9], 92 % of control and 94 % of control; under setting [10], 102 % of control; under setting [11], 93 % of control; under setting [15], 102 % of control.
With `CC1(C)OC2OC(COC(=O)c3ccccc3)C(=O)C2O1` (stereo not drawn), the T/C is 92 % of control under setting [10], 92 % of control under setting [11] and 101 % of control under setting [15].
